Legend:
[1] = Acute toxicity (single oral administration to mice); details: mouse, in vivo, read-out: Toxicity LD 50
From the text: Representative compounds of formulae I and II have been investigated with respect to their mucosa-protective and gastric acid secretion-inhibiting properties as well as to their toxicity.
(§1) In the following Table there are given for a series of representative compounds of formula I and for two compounds of formula II the results of the testing with respect to their mucosa-protective activity ("ethanol test") and to their gastric acid secretion-inhibiting activity. Moreover, this Table contains data concerning the acute toxicity (LD50 in the case of single oral administration to mice).

[2] = test system: ethanol-induced lesions of the mucous membrane of the stomach; test: Ethanol test (mucosa-protective activity); format: in vivo, male rats; details: rats; oral, 30 minutes prior to absolute ethanol (1 ml per rat); dosage reducing by 50% the number of lesions vs control; read-out: Ethanol Test ID 50
Experimental: The experimental procedure described hereinafter has been used to determine the mucosa-protective property:
The oral administration of absolute ethanol to male rats in a dosage of 1 ml per rat leads within 1 hour to bloody lesions of the mucous membrane of the stomach. Various dosages of the substances to be tested (suspended in 0.125% carboxymethylcellulose) or of the vehicle alone (control) are administered to the rats orally (1 ml per rat) 30 minutes prior to the treatment with ethanol. One hour after the administration of the ethanol the animals are sacrificed, their stomachs are examined for the presence of lesions, and the number and size of such lesions are mentioned. The ID50 is that dosage of a test substance which reduces by 50% the number of lesions in comparison to the control group.
as §1

[3] = test system: gastric acid secretion; test: Gastric acid secretion-inhibiting activity (pylorus ligation, Shay et al.); format: in vivo, male rats; details: Rattus norvegicus, 5 h; pylorus-ligated rats; intraduodenal; five hours after ligation; dosage giving 50% decrease of the secretion vs control; read-out: Gastric acid secretion-inhibition ID 50
Experimental: The test procedure described hereinafter was used to determine the gastric acid secretion-inhibiting activity:
The pylorus of male rats is ligated under slight ether narcosis in accordance with the procedure described by Shay et al. in Gastroenterology 5, 43 (1945). The substances to be tested, suspended in 0.5% carboxymethylcellulose, are administered intraduodenally. Control animals are treated only with the vehicle. Five hours after the ligation the animals are sacrificed, the volume and acidity of their gastric fluid are determined, and the values obtained are compared with those of control animals. The ID50 is that dosage of a test substance which brings about a 50% decrease of the secretion in comparison to the control animals.
as §1

Row | SMILES | LD50 [1] | ED50 [2] | ED50 [3]
1 | COC(=O)C#CC(O)/C=C/c1ccc(OC)cc1 (stereo not drawn) [I, Methyl (E)4-hydroxy-6-(4-methoxyphenyl)-5-hexen-2-ynoate] | 1000 to 2000 mg/kg | 2.1 mg/kg | 
2 | COc1ccc(/C=C/C(=O)C#CC(=O)O)cc1 [D, (E)6-(4-Methoxyphenyl)-4-oxo-5-hexen-2-ynoic acid] | 500 to 1000 mg/kg | 0.5 mg/kg | 
3 | COCCOCCOC(=O)/C=C/C(=O)/C=C/c1cccc(OC)c1 [G, 2(2-Methoxyethoxy)ethyl (E,E)6-(3-methoxyphenyl)-4-oxo-2,5-hexadienoate] | 500 to 1000 mg/kg | 2.7 mg/kg | 
4 | O=C(O)/C=C/C(=O)/C=C/c1ccc(F)cc1 [E, (E,E)6-(4-Fluorophenyl)-4-oxo-2,5-hexadienoic acid] | 312 to 625 mg/kg | 1.9 mg/kg | 
5 | COC(=O)/C=C\C(=O)/C=C/c1ccc(OC)cc1 [C, Methyl (2Z,5E)6-(4-methoxyphenyl)-4-oxo-2,5-hexadienoate] | 625 to 1250 mg/kg | 1 mg/kg | 
6 | COc1ccc(/C=C/C(=O)/C=C/C(=O)O)cc1 [B, (E,E)6-(4-Methoxyphenyl)-4-oxo-2,5-hexadienoic acid] | 312 to 625 mg/kg | 0.7 mg/kg | 
7 | COc1cccc(/C=C/C(=O)/C=C/C(=O)O)c1 [A, (E,E)6-(3-Methoxyphenyl)-4-oxo-2,5-hexadienoic acid] | 312 to 625 mg/kg | 0.8 mg/kg | 9 mg/kg
8 | COCCOCCOC(=O)C#CC(O)/C=C/c1ccc(OC)cc1 (stereo not drawn) [J, 2(2-Methoxyethoxy)ethyl (E)4-hydroxy-6-(4-methoxy-phenyl)-5-hexen-2-ynoate] | > 4000 mg/kg | 3.4 mg/kg | 
9 | COc1ccc(/C=C/C(=O)/C=C\C(=O)O)cc1 [F, (2Z,5E)6-(4-Methoxyphenyl)-4-oxo-2,5-hexadienoic acid] | 156 to 312 mg/kg | 0.7 mg/kg | 
10 | COCCOCCOC(=O)C#CC(=O)/C=C/c1ccc(OC)cc1 [H, 2(2-Methoxyethoxy)ethyl (E)6-(4-methoxyphenyl)-4-oxo-5-hexen-2-ynoate] | 2500 to 5000 mg/kg | 2.7 mg/kg | 

Source: patent US4927958A, “Styryl ketones” (Hoffmann-La Roche Inc., priority 1987, dated 1990)
